Test results as given in the supplement of paper PMC10307832.

How the values were obtained:
Experiment in all cases: relative viability (nuclei count vs DMSO), 5 days (fraction); higher = more cells survive
Midostaurin + OSI-027 = compound: CO[C@@H]1[C@H](N(C)C(=O)c2ccccc2)C[C@H]2O[C@]1(C)n1c3ccccc3c3c4c(c5c6ccccc6n2c5c31)C(=O)NC4 [Midostaurin] + COc1cccc2cc(-c3nc([C@H]4CC[C@H](C(=O)O)CC4)n4ncnc(N)c34)[nH]c12 [OSI-027] (partner 0.5 µM)
Procedure, shortened: (§1)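 One day after seeding in 1536-well plates, lung cancer cell lines were dosed by pin tool. Dosing was either single-drug or a fixed anchor-drug dose plus five library-drug doses (not always all listed) in √10 steps. After 5 days, nuclei were stained in one fix-and-stain step and counted on 4× images, and relative viability is the nuclei count of treated wells over that of vehicle wells, given as the median of duplicate plates.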

Midostaurin + Olaparib = compound: CO[C@@H]1[C@H](N(C)C(=O)c2ccccc2)C[C@H]2O[C@]1(C)n1c3ccccc3c3c4c(c5c6ccccc6n2c5c31)C(=O)NC4 [Midostaurin] + O=C(c1cc(Cc2n[nH]c(=O)c3ccccc23)ccc1F)N1CCN(C(=O)C2CC2)CC1 [Olaparib] (partner 8 µM)
Procedure, shortened: as §1

Midostaurin + Pictilisib = compound: CO[C@@H]1[C@H](N(C)C(=O)c2ccccc2)C[C@H]2O[C@]1(C)n1c3ccccc3c3c4c(c5c6ccccc6n2c5c31)C(=O)NC4 [Midostaurin] + CS(=O)(=O)N1CCN(Cc2cc3nc(-c4cccc5[nH]ncc45)nc(N4CCOCC4)c3s2)CC1 [Pictilisib] (partner 1 µM)
Procedure, shortened: as §1

Midostaurin + Bortezomib = compound: CO[C@@H]1[C@H](N(C)C(=O)c2ccccc2)C[C@H]2O[C@]1(C)n1c3ccccc3c3c4c(c5c6ccccc6n2c5c31)C(=O)NC4 [Midostaurin] + CC(C)C[C@H](NC(=O)[C@H](Cc1ccccc1)NC(=O)c1cnccn1)B(O)O [Bortezomib] (partner 0.002 µM)
Procedure, shortened: as §1

[1] = compound: COc1cc(-c2nn([C@H]3CC[C@H](N4CCN(C(C)=O)CC4)CC3)c3ncnc(N)c23)ccc1NC(=O)c1cc2ccccc2n1C + NC(=O)Nc1cc(-c2cccc(F)c2)sc1C(=O)N[C@H]1CCCNC1 [AZD7762] (partner 0.2 µM)
Procedure, shortened: as §1

Cell Line	relative viability (Midostaurin + OSI-027; first compound 0.01 µM)	relative viability (Midostaurin + OSI-027; first compound 0.03162 µM)	relative viability (Midostaurin + OSI-027; first compound 0.1 µM)	relative viability (Midostaurin + OSI-027; first compound 0.3162 µM)	relative viability (Midostaurin + Olaparib; first compound 0.01 µM)	relative viability (Midostaurin + Olaparib; first compound 0.03162 µM)	relative viability (Midostaurin + Olaparib; first compound 0.1 µM)	relative viability (Midostaurin + Olaparib; first compound 0.3162 µM)	relative viability (Midostaurin + Pictilisib; first compound 0.01 µM)	relative viability (Midostaurin + Pictilisib; first compound 0.03162 µM)	relative viability (Midostaurin + Pictilisib; first compound 0.1 µM)	relative viability (Midostaurin + Pictilisib; first compound 0.3162 µM)	relative viability (Midostaurin + Bortezomib; first compound 0.01 µM)	relative viability (Midostaurin + Bortezomib; first compound 0.03162 µM)	relative viability (Midostaurin + Bortezomib; first compound 0.1 µM)	relative viability (Midostaurin + Bortezomib; first compound 0.3162 µM)	relative viability ([1]; first compound 0.0128 µM)	relative viability ([1]; first compound 0.04048 µM)	relative viability ([1]; first compound 0.128 µM)	relative viability ([1]; first compound 1.28 µM)
201T	0.725	0.787	0.751	0.818	0.833	0.801	0.815	0.86	0.707	0.571	0.659	0.722	1.08	1.04	1.05	1.13	0.707	0.51	0.584	0.465
A549	–	–	–	–	0.256	0.39	0.359	0.216	0.549	0.446	0.483	0.224	–	–	–	–	–	–	–	–
A-427	0.449	0.467	0.434	0.512	0.711	0.654	0.713	0.725	0.75	0.614	0.702	0.578	0.961	0.939	0.992	0.899	0.76	0.641	0.782	0.727
ABC-1	0.488	0.536	0.574	0.521	0.691	1.31	0.59	0.928	0.795	0.639	0.654	0.775	0.316	0.289	0.285	0.292	0.658	0.759	0.697	0.728
BEN	0.324	0.273	0.267	0.32	1.12	1.24	0.928	1.13	0.65	0.584	0.608	0.652	0.797	0.841	0.909	1.09	0.532	0.729	0.591	0.671
CAL-12T	0.779	0.475	0.531	0.307	0.76	0.585	0.681	0.633	0.457	0.417	0.334	0.413	1	0.922	0.88	0.796	0.675	0.7	0.49	0.581
COR-L23	0.706	0.681	0.795	0.802	0.386	0.269	0.279	0.255	0.743	0.734	0.752	0.603	0.871	0.957	0.936	0.81	–	–	–	–
COR-L 105	0.793	0.548	0.607	0.551	0.829	0.626	0.527	0.616	0.36	0.453	0.337	0.34	0.823	0.804	0.668	0.499	–	–	–	–
Calu-6	–	–	–	–	0.421	0.638	0.509	0.495	0.876	0.837	0.937	0.771	0.934	0.973	0.96	0.791	–	–	–	–
ChaGo-K-1	0.645	0.737	0.671	0.599	0.439	0.404	0.338	0.433	0.688	1.24	0.712	1.1	0.985	1.28	0.759	1.12	0.829	0.779	0.818	0.72
EBC-1	–	–	–	–	0.719	0.589	0.673	0.679	0.504	0.272	0.294	0.196	0.756	0.485	0.502	0.427	–	–	–	–
IA-LM	–	–	–	–	0.746	0.653	0.748	0.881	0.405	–	0.497	0.449	0.85	–	0.946	0.783	–	–	–	–
LK-2	0.232	0.232	0.248	0.197	0.686	0.612	0.878	0.791	0.592	0.555	0.586	0.599	–	–	–	–	0.485	0.243	0.321	0.188
NCI-H358	0.894	0.73	0.788	0.776	0.511	0.48	0.531	0.575	0.437	0.222	0.308	0.432	–	–	–	–	0.496	0.5	0.444	0.225
NCI-H520	0.293	0.24	0.403	0.359	0.32	0.318	0.266	0.249	0.257	0.239	0.3	0.362	0.657	0.492	0.594	0.596	–	–	–	–
NCI-H522	0.712	0.729	0.668	0.766	0.546	0.748	0.578	0.682	–	–	–	–	–	–	–	–	0.73	0.848	0.909	0.892
NCI-H661	0.74	0.638	0.719	0.607	0.721	0.7	0.714	0.717	0.397	0.386	0.33	0.438	0.742	0.933	0.667	0.72	–	–	–	–
